Source: patent US20240025946A1, “Cyclic Tetrapeptides and Metal Complexes Thereof” (priority 2020, published 2024)
pIC50: −log10 of the molar value. “And” between values parts separate entries of the source, which are not always exact repeats. Equal values may be shown once.

What was measured:
DH5α E. coli = assay: In vivo recovery test: Pb detoxification of poisoned bacteria, colony counting; format: cell-based; conditions: highest concentration 120 mM (10 equiv.); Pb(NO3)2 12 mM; vs poisoned untreated cells; mean
Description: (§1) Desalted peptides were then assessed for their ability to detoxify Pb (FIGS. 2a-d). The inventors designed two assays for rapid and reliable screening of potential CAs both in vivo on bacteria and then in vitro on human cell culture. Briefly, DH5a or HT-29 cells were first exposed to Pb(NO3)2 slightly below the minimal inhibitory concentration and then treated with various concentrations of the investigated CA, ranging from 0.1 to 10 equivalents. The viability of the cells was determined by colony counting or by crystal violet (Feoktistova et al, 2016), for the bacteria and the human cells, respectively, and was compared to poisoned cells that were not treated with any CA as the negative control. […] On the other hand, testing the compounds on human cells cannot be performed with insoluble compounds but is more relevant for medicinal purposes.
HRMS (ESI) m/z calculated for C16H26N4O4SNa^+ [M+Na]^+ 427.14442; found: 427.14447 In vivo recovery tests A single colony of DH5a E. coli WT cells was grown overnight at 37° C. and 220 rpm in Tris Minimal Medium (TMM, pH 6.0; 5 mL) without antibiotics. The culture was then diluted to an OD600 of 0.03 with additional TMM to a total volume of 5 mL, and its OD600 was monitored. Upon cell density of 0.25 (which was achieved after 3-5 h), 1 mL of the culture was transferred into a cell culture tube and was labeled as the positive control. To additional 3 mL of the culture, 36 μL of Pb(NO3)2 1 M were added (final concentration of 12 mM). Both cultures were shaken at 37° C. and 220 rpm for an additional 5 h.
Aqueous stock solutions of each CA were plated on freshly prepared agar-LB plates such that the final concentration of each compound is equal to 0.5, 1, 2, 5, and 10 equivalents, compared to the amount of Pb(NO3)2 in 50 μL pre-toxified culture. The stock solutions were prepared such that plating and equally spreading 30 μL of each solution will provide the desired amount of CA. To additional two plates, 30 μL of H2O was added.
50 μL of the pre-toxified culture were homogenously spread to each CA-containing plate, 5 h after adding the metal to the culture. The Pb-containing culture was also plated on one of the two H2O-containing plates and was labeled as the negative control. Lastly, 50 μL of the non-toxified culture were platted on the second H2O-containing plate and was labeled as positive control. All plates (positive and negative control and five plates for each examined compound) were then incubated at 37° C. overnight. The plates were then imaged, and the colonies were counted (with Vilber Quantum Visualization System). The recovery of each concentration of CA was calculated according to equation 1: […]
#CAx—number of colonies of pre-toxified culture in a plate containing X mM of CA
#NEG—number of colonies of pre-toxified culture in a plate containing no CA
(§2) Each experiment was performed on three independent occasions. Values are mean±SD of >3 repeats each performed in triplicate.

HT-29 cells [1] = assay: In vitro recovery test: Pb detoxification of poisoned human cells, crystal violet; format: cell-based; conditions: highest concentration 10 mM (5 equiv.); Pb(NO3)2 2 mM; vs poisoned untreated cells; mean, SD
Description: as §1
96-well plates were prepared such that every well contains 10,000 cells in 100 μL medium, and the cells were allowed to adhere overnight. To all wells but the positive control, 10 μL of 22 mM Pb(NO3)2 were added (final concentration 2 mM). 10 μL of H2O was added to the positive control wells. 60 min after addition of metal, 10 μL of each solution of the examined CA (2.4, 6, 12, 24, 48, and 120 mM) were added to reach final concentrations of 0.2, 0.5, 1, 2, 4, and 10 mM (which are 0.1, 0.25, 0.5, 1, 2, and 5 equivalents, respectively). To the positive control wells containing no metal and the negative control wells containing metal but no CA, 10 μL of H2O were added. Each condition was performed in triplicates. The plates were incubated at 37° C. and 5% CO2 for an additional 23 h, after which the medium was removed, washed with fresh medium and 50 μL of crystal violet solution (0.5% crystal violet powder in 20 mL MeOH and 80 mL H2O) to each well and the plates were gently shaken (60 rpm) for 20 min. The plates were then washed with H2O until no more unbound dye was observed and allowed to dry overnight. 200 μL of MeOH were added to each well, and the plates were gently shaken (60 rpm) for 20 min, after which their absorbance at 560 nm was read with a plate reader. The recovery of each concentration of CA was calculated according to equation 2:
(§3) A[CAx]—absorbance of the pre-toxified well in the presence of X mM of CA
(§4) A[blank]—absorbance of blank wells (contain nothing)
A[NEG]—absorbance of the pre-toxified well that contains no CA
as §2

HT-29 cells [2] = assay: In vitro toxicity test, crystal violet; format: cell-based, human; conditions: HT-29, 24 h; for pIC50: concentration at 50% viability, mean (SD), n.d. = not detected as it is too high
Description: 96-well plates were prepared such that every well contains 10,000 cells in 100 μL medium, and the cells were allowed to adhere overnight.
To all wells but the positive control, 10 μL of each solution of the examined CA (2.4, 6, 12, 24, 48, and 120 mM) were added to reach final concentrations of 0.2, 0.5, 1, 2, 4, and 10 mM. To the positive control wells, 10 μL of H2O was added. Each condition was performed in triplicates. The plates were incubated at 37° C. and 5% CO2 for 24 h, after which the medium was removed, washed with fresh medium and 50 μL of crystal violet solution (0.5% crystal violet powder in 20 mL MeOH and 80 mL H2O) to each well and the plates were gently shaken (60 rpm) for 20 min. The plates were then washed with H2O until no more unbound dye was observed and allowed to dry overnight. 200 μL of MeOH were added to each well, and the plates were gently shaken (60 rpm) for 20 min, after which their absorbance at 560 nm was read with a plate reader. The toxicity of each concentration of CA was calculated according to equation 3:
as §3, §4
A[POS]—absorbance of well that contains no CA
as §2

male mice (C57BL/6) = assay: Pb-poisoned mice: blood lead level and urinary Pb by ICP-MS; format: in vivo; conditions: 30 mg kg^−1 day^−1, days 10-16; for BLL: blood on day 18, eight mice; for Urinary Pb (ppm): urine on day 18
Description: Peptide 8a was then tested in mice. 40 male mice (C57BL/6) aged 6-8 weeks were provided with 20 mM Pb(OAc)2 solution as the sole water supply for seven days (days 1-7). This poisoning route mimics chronic exposure in humans. Two days after returning to clean water (day 9), they were randomly divided into five groups of eight mice. They received a single treatment per day for seven days (days 10-16) of either CaNa2EDTA, DMSA, or 8a at a concentration of 30 mg kg^−1 except for group 1 that served as the negative control (Table 3).
Blood samples (100 μL) were collected before dosing the mice on days 10-15 and on day 18, which is two days after the last dosing and the day by which the experiment was terminated. Urine was also collected from 34 animals on day 18 and was kept frozen until analysis.

SMILES | Recovery DH5α (%) (DH5α E. coli) | Recovery HT-29 (%) (HT-29 cells [1]) | pIC50 (HT-29 cells [2]; Homo sapiens) | inhibition at 10000 µM (HT-29 cells [2]; Homo sapiens, inhibition at the highest concentration (10 mM), mean, SD, read-out: Toxicity Maximal inhibition (%)) [%] | BLL (male mice (C57BL/6); Oral) [µg/dL] | Urinary Pb (ppm) (male mice (C57BL/6); Oral) | pIC50 (HT-29 cells [2]) | Toxicity Maximal inhibition (%) (HT-29 cells [2]; inhibition at the highest concentration (10 mM), mean, SD) | BLL (male mice (C57BL/6); IV) [µg/dL] | Urinary Pb (ppm) (male mice (C57BL/6); IV)
O=C(O)C(S)C(S)C(=O)O (stereo not drawn) [DMSA, dimercaptosuccinic acid] | 165 | 110±10% and 110% | 2.43 | 77 | 23.3 ± 2.3 | 340 ± 28 |  |  |  | 
O=C([O-])CN(CCN(CC(=O)[O-])CC(=O)[O-])CC(=O)[O-].[Ca+2].[Na+].[Na+] [Na2CaEDTA] | 182 | 95±16% and 95% |  |  |  |  | 2.41 | 63 | 25.7 ± 1.6 | 210 ± 30
